In paper PMC6399515 (Insect Biochemistry and Molecular Biology, 2016):

Key:
CYP6P2 = molecular target: T1, CYP6P2 (Anopheles gambiae, UniProt Q8T629, V81I)
T1 sequence (Q8T629 1-507 V81I): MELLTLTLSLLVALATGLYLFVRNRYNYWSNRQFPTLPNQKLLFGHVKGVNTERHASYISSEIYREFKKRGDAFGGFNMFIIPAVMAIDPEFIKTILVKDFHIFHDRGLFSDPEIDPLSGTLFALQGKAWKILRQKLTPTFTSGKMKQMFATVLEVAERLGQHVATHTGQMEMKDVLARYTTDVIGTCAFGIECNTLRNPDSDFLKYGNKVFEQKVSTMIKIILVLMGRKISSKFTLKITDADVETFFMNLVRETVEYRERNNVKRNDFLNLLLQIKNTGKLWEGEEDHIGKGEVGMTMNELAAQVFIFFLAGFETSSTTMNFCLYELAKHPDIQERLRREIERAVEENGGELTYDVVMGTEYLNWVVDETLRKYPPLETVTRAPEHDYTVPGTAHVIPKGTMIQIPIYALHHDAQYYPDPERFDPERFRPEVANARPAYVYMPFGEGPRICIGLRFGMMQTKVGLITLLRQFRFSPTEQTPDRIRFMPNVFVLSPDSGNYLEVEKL
T1 sequence (Q7QFI3 1-587 partner): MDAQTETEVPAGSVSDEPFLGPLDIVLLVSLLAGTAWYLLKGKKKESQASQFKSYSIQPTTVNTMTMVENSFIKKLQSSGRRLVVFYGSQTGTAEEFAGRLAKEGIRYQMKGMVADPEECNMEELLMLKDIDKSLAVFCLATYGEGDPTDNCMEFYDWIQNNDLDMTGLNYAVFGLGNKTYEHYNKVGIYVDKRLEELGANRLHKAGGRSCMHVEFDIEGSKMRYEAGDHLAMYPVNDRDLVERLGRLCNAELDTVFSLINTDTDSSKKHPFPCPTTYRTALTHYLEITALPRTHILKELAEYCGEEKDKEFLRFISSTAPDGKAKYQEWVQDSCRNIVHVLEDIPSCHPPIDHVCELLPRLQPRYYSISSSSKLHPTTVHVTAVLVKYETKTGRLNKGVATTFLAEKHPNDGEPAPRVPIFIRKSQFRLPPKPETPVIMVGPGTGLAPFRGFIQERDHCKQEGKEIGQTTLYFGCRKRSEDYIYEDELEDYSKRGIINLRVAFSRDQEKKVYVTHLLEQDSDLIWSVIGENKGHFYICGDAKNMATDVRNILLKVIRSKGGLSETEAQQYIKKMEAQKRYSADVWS
T1 sequence (Q86QH4 1-128 partner): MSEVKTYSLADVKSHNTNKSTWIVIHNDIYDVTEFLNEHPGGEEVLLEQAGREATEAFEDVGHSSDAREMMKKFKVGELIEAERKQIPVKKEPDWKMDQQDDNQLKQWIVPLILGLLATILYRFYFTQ

CYP9J5 = molecular target: T2, CYP9J5 (Anopheles gambiae, UniProt Q5TN57)
T2 sequence (Q5TN57 1-545): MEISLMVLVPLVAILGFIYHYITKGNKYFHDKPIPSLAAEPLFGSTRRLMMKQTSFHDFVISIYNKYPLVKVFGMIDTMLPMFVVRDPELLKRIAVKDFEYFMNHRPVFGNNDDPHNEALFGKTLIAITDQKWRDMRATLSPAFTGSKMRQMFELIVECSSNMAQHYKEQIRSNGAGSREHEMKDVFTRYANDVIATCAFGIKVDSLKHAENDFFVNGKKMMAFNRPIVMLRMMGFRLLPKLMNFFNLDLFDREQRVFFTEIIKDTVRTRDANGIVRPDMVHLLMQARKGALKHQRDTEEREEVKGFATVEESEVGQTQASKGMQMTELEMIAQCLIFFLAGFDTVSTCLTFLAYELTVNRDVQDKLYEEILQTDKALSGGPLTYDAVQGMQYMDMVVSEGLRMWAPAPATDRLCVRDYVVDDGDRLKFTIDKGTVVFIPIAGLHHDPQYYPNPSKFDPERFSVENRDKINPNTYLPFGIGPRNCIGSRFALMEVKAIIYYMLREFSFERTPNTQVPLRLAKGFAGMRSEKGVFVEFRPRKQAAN
T2 sequence (Q86QH5 1-679 partner): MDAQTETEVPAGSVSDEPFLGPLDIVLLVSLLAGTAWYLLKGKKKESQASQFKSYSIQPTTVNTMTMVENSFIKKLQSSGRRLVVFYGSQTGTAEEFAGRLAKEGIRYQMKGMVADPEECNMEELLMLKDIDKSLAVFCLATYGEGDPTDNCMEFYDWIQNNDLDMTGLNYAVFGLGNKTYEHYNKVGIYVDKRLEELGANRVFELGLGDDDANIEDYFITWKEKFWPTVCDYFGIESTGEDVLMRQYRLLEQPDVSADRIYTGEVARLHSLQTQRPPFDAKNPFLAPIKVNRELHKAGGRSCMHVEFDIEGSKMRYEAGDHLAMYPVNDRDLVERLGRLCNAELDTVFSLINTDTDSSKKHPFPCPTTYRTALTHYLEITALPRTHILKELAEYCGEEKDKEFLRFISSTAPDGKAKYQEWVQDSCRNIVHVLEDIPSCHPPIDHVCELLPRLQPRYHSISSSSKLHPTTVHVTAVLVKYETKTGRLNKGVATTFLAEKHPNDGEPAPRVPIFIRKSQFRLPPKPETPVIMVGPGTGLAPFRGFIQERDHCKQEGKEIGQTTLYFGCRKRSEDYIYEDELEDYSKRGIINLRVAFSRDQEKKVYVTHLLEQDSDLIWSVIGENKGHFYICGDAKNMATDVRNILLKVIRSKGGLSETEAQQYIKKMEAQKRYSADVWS
T2 sequence (Q86QH4 1-128 partner): T1 sequence (Q86QH4 1-128 partner)

CYP6Z2 = molecular target: T3, CYP6Z2 (Anopheles gambiae, UniProt A8I285); experiment: biochemical
T3 sequence (A8I285 1-492): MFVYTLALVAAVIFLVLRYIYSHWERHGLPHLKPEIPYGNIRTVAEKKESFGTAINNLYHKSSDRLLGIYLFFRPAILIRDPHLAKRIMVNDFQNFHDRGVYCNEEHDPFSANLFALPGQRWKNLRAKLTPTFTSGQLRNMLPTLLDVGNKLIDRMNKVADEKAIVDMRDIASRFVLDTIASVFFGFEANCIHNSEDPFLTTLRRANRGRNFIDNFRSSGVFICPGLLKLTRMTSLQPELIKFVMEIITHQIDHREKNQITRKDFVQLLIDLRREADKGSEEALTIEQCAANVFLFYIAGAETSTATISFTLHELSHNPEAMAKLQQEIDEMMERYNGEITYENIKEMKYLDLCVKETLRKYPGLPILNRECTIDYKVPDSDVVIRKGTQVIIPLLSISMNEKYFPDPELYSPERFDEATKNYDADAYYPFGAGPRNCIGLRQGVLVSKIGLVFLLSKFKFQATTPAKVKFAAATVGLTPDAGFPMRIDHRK
T3 sequence (Q86QH5 1-679 partner): T2 sequence (Q86QH5 1-679 partner)
T3 sequence (Q86QH4 1-128 partner): T1 sequence (Q86QH4 1-128 partner)

[1] = category of inhibition of DEF metabolism

Compound | Inhibition ratio (%): reduction of PPF depletion caused by PBO (CYP6P2) | Inhibition ratio (%): reduction of PPF depletion caused by PBO (CYP9J5) | IC50 (CYP6Z2; IC50 of DEF metabolism) | IC50 (CYP6Z2; [1]) | % PPF depletion + PBO (CYP6P2; Anopheles gambiae, pH 7.4) | % PPF depletion −PBO (CYP6P2; Anopheles gambiae, pH 7.4) | % PPF depletion + PBO (CYP9J5; Anopheles gambiae, pH 7.4)
CCCCOCCOCCOCc1cc2c(cc1CCC)OCO2 [PBO, piperonyl butoxide] | 91.0% | 99.6% |  |  |  |  | 
CC1(C)C(C=C(Cl)Cl)C1C(=O)OCc1cccc(Oc2ccccc2)c1 (mixture of isomers) [Permethrin, 3-phenoxybenzyl (1R,S)-cis,trans-3-(2,2-dichlorovinyl)-2,2-dimethylcyclopropanecarboxylate] |  |  | 13.7 µM | > 10 µM |  |  | 
CC(COc1ccc(Oc2ccccc2)cc1)Oc1ccccn1 (stereo not drawn) [PPF, pyriproxyfen] |  |  | 2.23 µM | 1 to 10 µM | 6.45 ± 3.22% | 58.03 ± 1.35% | 0.08 ± 0.15%
